Source: patent publication US20040072892A1, “Cyanopyrrolidine derivatives” (priority 2000, published 2004)
Structures can show the parent of a compound that is named as a salt.

Tests used:
[1] = biological target: dipeptidyl peptidase IV (DPP IV) (Homo sapiens, UniProt P27487); assay: Dipeptidyl peptidase IV activity inhibition test (human plasma, Gly-Pro-4-methylcoumaryl-7-amide); assay type: biochemical; conditions: room temperature, 2 hours, pH 7.8
Description: Experiment 1 [Dipeptidyl Peptidase IV Activity Inhibition Test]
Plasma including dipeptidyl peptidase IV was prepared by centrifugation of blood collected from healthy human volunteers. […] The fluorescence intensity at which the reaction time of the vehicle addition was 0 minute was regarded as a blank value, and the specific fluorescence intensity was calculated by subtracting the blank value from the determined value. The inhibition rate (%) of the dipeptidyl peptidase IV activity was calculated from the resulting specific fluorescence intensity according to the following formula. The dimethyl sulfoxide solution containing the test compound at high concentration of 1000-fold was prepared and diluted with the above-mentioned buffer solution for use.
Inhibition rate (%)=A/B×100
(A=fluorescence intensity of vehicle addition fluorescence intensity of the test compound addition)
(B=fluorescence intensity of the vehicle addition)

[2] = Concentration of test drug in blood by oral administration in rats (LC/MS/MS); assay type: in vivo; conditions: Wistar rats, oral 1 mg/kg; for concentration at 5 min / concentration at 10 min / concentration at 15 min / concentration at 30 min / concentration at 1 h / concentration at 2 h: male, rat, plasma, mean of 2 samples; for concentration at 5 min: 5 min. after administration; for concentration at 10 min: 10 min. after administration; for concentration at 15 min: 15 min. after administration; for concentration at 30 min: 30 min. after administration; for concentration at 1 h: 1 hour after administration; for concentration at 2 h: 2 hours after administration
Description: Experiment 2 [Concentration of Test Drug in Blood by Oral Administration in Rats]
Wistar rats, male (8 weeks old) were used after fasting from the day before the test.
At 5, 10, 15, 30 minutes, 1 and 2 hours after the administration, each 0.2 ml of blood was collected from the jugular vein and, after centrifugation, the resulting plasma was used as sample.
That is, 50 μl of the plasma was added to 200 μl of acetonitrile, stirred and, after centrifugation, the supernatant was injected to a liquid chromatography wherein CAPCEL PAK C18, UG120 5 μm (150 mm long, 2 mm diameter) was used as a column, a mixture of 10 mM aqueous ammonium acetate solution and 90% aqueous acetonitrile solution (1:9) was used as an eluent, Sciex API3000 LC/MS/MS System (Perkin Elmer Sciex) was used as a MS/MS condition, ESI was used as an ionization method, and cation, and SRM (precursor ion and daughter ion) was used for monitoring.

Zucker fatty rats = assay: Oral glucose tolerance test (OGTT) in Zucker fatty rats; assay type: in vivo
Description: Experiment 3 [Effect of Dipeptidyl Peptidase IV Inhibitors on Oral Glucose Tolerance Test (OGTT) in Zucker Fatty Rats]
An OGTT in Zucker fatty rats was carried out referring to the method described in Diabetologia, 42, 1324-1331 (1999). In the test, male Zucker fatty rats, 10 weeks old (Charles River Japan, Inc.) were used after fasting for 16 hours. […] Before the begining of the test, blood was collected from the intraorbital vein using a heparin-treated tube for blood collection (manufactured by Drummond Scientific Co.). The test compounds were each dissolved in water for injection under Japanese Pharmacopoeia (manufactured by Hikari Pharmaceutical Co.) and orally administered in an amount of 2 ml/kg of the body weight. The same amount of water for injection under Japanese Pharmacopoeia only was administered to control group. […]
Plasma glucose levels of the frozen samples (mg/dl) were determined using Glucose CII test Wako (manufactured by Wako Fine Chemical Industry Co.), and the area under the curve (min·mg/dl) was calculated from the plasma glucose levels which were determined from the blood collected for 60 minutes after the glucose administration. […]

Sequence of dipeptidyl peptidase IV (DPP IV) (P27487 39-766 limits assumed): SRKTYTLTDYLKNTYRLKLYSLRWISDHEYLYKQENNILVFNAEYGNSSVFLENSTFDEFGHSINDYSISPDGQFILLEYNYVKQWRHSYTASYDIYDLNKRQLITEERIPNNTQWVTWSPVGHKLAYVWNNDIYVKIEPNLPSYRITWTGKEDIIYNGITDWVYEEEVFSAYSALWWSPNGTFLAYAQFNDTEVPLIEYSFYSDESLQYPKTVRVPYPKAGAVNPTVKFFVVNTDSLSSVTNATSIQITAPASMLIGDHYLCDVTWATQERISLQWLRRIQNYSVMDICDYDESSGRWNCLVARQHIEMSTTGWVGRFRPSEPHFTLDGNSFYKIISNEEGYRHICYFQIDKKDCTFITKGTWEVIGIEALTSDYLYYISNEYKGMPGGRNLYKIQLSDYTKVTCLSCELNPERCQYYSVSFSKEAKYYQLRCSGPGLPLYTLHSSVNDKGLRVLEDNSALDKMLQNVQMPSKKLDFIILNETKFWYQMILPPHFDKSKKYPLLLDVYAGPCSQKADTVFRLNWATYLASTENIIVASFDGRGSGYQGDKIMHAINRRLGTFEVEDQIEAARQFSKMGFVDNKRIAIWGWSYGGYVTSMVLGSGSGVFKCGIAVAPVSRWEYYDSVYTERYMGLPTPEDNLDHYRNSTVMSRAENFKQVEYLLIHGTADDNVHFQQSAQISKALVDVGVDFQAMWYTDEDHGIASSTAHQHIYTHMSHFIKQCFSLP

| IC50 [1] [nM] | concentration at 5 min [2] [ng/mL] | concentration at 10 min [2] [ng/mL] | concentration at 15 min [2] [ng/mL] | concentration at 30 min [2] [ng/mL] | concentration at 1 h [2] [ng/mL] | concentration at 2 h [2] [ng/mL] | SMILES | concentration in plasma compared with Compound A (in words) [2] | elevation of the plasma glucose level (in words) (Zucker fatty rats; OGTT, p<0.05) | area under the curve of plasma glucose levels, mean ± S.E. (Zucker fatty rats; oral, glucose 1 g/kg 30 minutes after compound, 60 minutes after glucose administration) [mg·min/dL] |
| --- | --- | --- | --- | --- | --- | --- | --- | --- | --- | --- |
| 0.6 | – | – | – | – | – | – | CC(C)(C)[C@H](N)C(=O)N1C[C@@H](F)C[C@H]1C#N [Example 17, (2S,4S)-1-[(2S)-2-amino-3,3-dimethylbutanoyl]-2-cyano-4-fluoropyrrolidine Hydrochloride] | – | – | – |
| 0.7 | – | – | – | – | – | – | CC(C)[C@H](N)C(=O)N1C[C@@H](F)C[C@H]1C#N [Example 15, (2S,4S)-1-[(2S)-2-amino-3-methylbutanoyl]-2-cyano-4-fluoropyrrolidine Hydrochloride] | – | – | – |
| – | 122 | 146 | 113 | 28 | 6 | 2 | CC[C@H](C)[C@H](N)C(=O)N1CCC[C@H]1C#N [Compound A, 1-[(2S,3S)-2-amino-3-methylpentanoyl]-2-(S)-cyanopyrrolidine trifluoroacetate, reference compound] | – | – | – |
| 0.6 | 157 | 372 | 348 | 195 | 24 | 5 | CC[C@H](C)[C@H](N)C(=O)N1C[C@@H](F)C[C@H]1C#N.Cl [Example 1, (2S,4S)-1-[(2S,3S)-2-amino-3-methylpentanoyl]-2-cyano-4-fluoropyrrolidine Hydrochloride] | higher concentration in plasma than Compound A | inhibited significantly the elevation of the plasma glucose level | 13248 ± 619 |
